Data: patent publication US10457707B2, “Substituted urea depsipeptide analogs as activators of the CLPP endopeptidase” (priority 2015, dated 2019)
Where two headings read alike, the source gives them in different places. *1 amine or outer side, *2 acyl side, *3 side chain or, on linkers, in order; H or OH if unused. Where a SMILES comes first, the peptide text is derived from it. Bridges are numbered along the chain shown (N, C = ends). [ ]: non-standard residue; d: D form. The star is where a group is joined. ξ: configuration not given here. Piperazine(2S-CO,4-Me) = CN1CCN[C@H](C(=O)O)C1; NH(1,3-benzodioxol-5-yl) = c1cc2c(cc1N*)OCO2; Phe(3,5-F2) = N[C@@H](Cc1cc(F)cc(F)c1)C(=O)O; NH(1-Me-indolin-5-yl) = CN1CCc2cc(N*)ccc21; NH(4-OCF3-phenyl) = FC(F)(F)Oc1ccc(N*)cc1; Morpholine(3S-CO) = O=C(O)[C@@H]1COCCN1; Pro(4S-Me) = C[C@@H]1CN[C@H](C(=O)O)C1; NH(4-Cl-2-F-phenyl) = Fc1cc(Cl)ccc1N*; Pro(4R-Me) = C[C@H]1CN[C@H](C(=O)O)C1; NH(3,4-Me2-phenyl) = Cc1ccc(N*)cc1C; NMeaThr = CN[C@H](C(=O)O)[C@H](C)O; Hyp = O=C(O)[C@@H]1C[C@@H](O)CN1; ξNMeThr = CNC(C(=O)O)[C@@H](C)O; aThr = C[C@H](O)[C@H](N)C(=O)O; Pip = O=C(O)[C@@H]1CCCCN1; X8 = c1cc2c(cc1N*)CCO2; X1 = N#Cc1cc(N*)ccc1F; CO = O=C([*:1])[*:2]

Biological target: T1, Sa-ClpP (Staphylococcus aureus, UniProt Q2G036)
T1 construct: made in house; host or cells: E. coli BL21(DE3)
T1 sequence (Q2G036 1-195): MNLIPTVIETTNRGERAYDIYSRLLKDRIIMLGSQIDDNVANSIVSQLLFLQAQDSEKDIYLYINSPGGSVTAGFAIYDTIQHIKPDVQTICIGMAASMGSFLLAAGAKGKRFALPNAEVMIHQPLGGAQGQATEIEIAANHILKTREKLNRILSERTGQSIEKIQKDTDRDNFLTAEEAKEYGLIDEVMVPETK
Assay: Sa-ClpP casein-BODIPY ClpP activation assay, method variant not marked in Table 5
Assay type: biochemical, S. aureus
Description: The compounds were assayed in a casein digestion assay in order to determine their effect on ClpP activation. Briefly, the assay was carried out using S. aureus ClpP (“Sa-ClpP”) overexpressed in E. coli BL21(DE3) and purified in a two-step process. Purity of the protein was assessed through SDS PAGE analysis. EC50 evaluations were conducted in triplicate in a 20 μl assay format using a method adapted from Maurizi et al. (Methods Enzymol. (1994) 244:314-331). Each well contained 10 μM saClpP, 25 μg/ml BODIPY FL casein (Invitrogen Corporation, San Diego, Calif.), and test compound in concentrations ranging between 0-1000 μM in assay buffer (50 mM Tris pH 8, 200 mM KCl, and 1 mM TCEP). The reaction took place at 37° C. Fluorescence (excitation 485 nm; emission 528 nm) was measured in five minute intervals over a 45 min period using a BioTek HT fluorescence microplate reader (BioTek Instruments, Inc., Winooski, Vt.). Velocity of each reaction was calculated and data was fit to a dose response curve using GraphPad Prism® software (GraphPad Software, Inc., La Jolla, Calif.). EC50 is the effective concentration of compound which causes 50% activation of S. aureus ClpP in the foregoing BODIPY FL casein assay.
Alternatively, the assay was carried out using EnzCheck Protease Assay (Molecular Probes, Catalog # E6638). The assay was performed in black 384 well, flat bottom, low volume plates (Greiner Bio-One, Monroe, N.C., catalog #784076). 10 μL of Tris*HCl buffer, pH 8.0 with 0.01% Triton X-100 was pipetted into each well using a Well-Mate (Thermo Scientific, Waltham, Mass.). 0.4 μL test compounds or controls (2% DMSO v/v) were added to each well using a Biomek FX liquid handling robot (Beckman Coulter, Indianapolis Ind.). After addition of test compounds and controls, 10 μL of master mix containing 2 μM Sa-ClpP and 2 μM substrate (Bodipy-FL labeled casein) in Tris*HCl buffer, pH 8.0 with 0.01% (v/v) Triton X-100, was pipetted into each well. All assays were performed in triplicate, under linear velocity conditions. Increase in fluorescent signal following activation of Sa-ClpP by test compounds and controls was measured over time period of 30 mins using filters with excitation at 485±15 nm and emission at 520±25 nm on a PHERAstar FS Multilabel reader (BMG, Cary, N.C.). […] Data analysis was done by measuring rate of casein degradation over time (slopes). Computed degradation rates (slopes) were normalized to positive (ADEP4) or negative (DMSO) controls. Using nonlinear regression curve fitting EC50 values and % activation were determined using the equation “log [agonist] vs. Response-variable slope (four parameters)-symmetrical” in the program Prism 6 (GraphPad Software, La Jolla, Calif. USA, www.graphpad.com).
Substituted urea depsipetide analogs were synthesized as described above. The EC50 for ClpP activation was determined in the Sa-ClpP in casein-BODIPY assay as described above. The IC50 for ADEP displacement was determined in the ADEP displacement fluorescent polarization assay as described above; and the IC50 for growth inhibition was determined in the Vero cell cytotoxicity assay as described above. The compound number corresponds to the compound numbers used in Tables 1-4 and the experimental examples described above.

[1] = values without ** or † mark, assay variant not stated, read-out: ClpP Activation EC50

SMILES	EC50 [1] [nM]	EC50 [nM]
C[C@H]1C[C@H]2C(=O)O[C@@H](C)[C@H](NC(=O)[C@H](Cc3cc(F)cc(F)c3)NC(=O)Nc3ccc(OC(F)(F)F)cc3)C(=O)N3CCC[C@H]3C(=O)N(C)[C@@H]([C@H](C)O)C(=O)N[C@@H](C)C(=O)N2C1 [Compound 203, (S)-3-(3,5-difluorophenyl)-N-((2S,6S,9S,11aS,17S,18S,20aS)-9-((S)-1-hydroxyethyl)-2,6,10,18-tetramethyl-5,8,11,16,20-pentaoxohexadecahydro-1H,5H,16H-dipyrrolo[2,1-c:2′,1′-l][1]oxa[4,7,10,13]tetraazacyclohexadecin-17-yl)-2-(3-(4-(trifluoromethoxy)phenyl)ureido)propanamide] ({NH(4-OCF3-phenyl)-CO}-[Phe(3,5-F2)][aThr]P[NMeaThr]A[Pro(4S-Me)]; ester 2-C)	430 ± 10	
C[C@@H]1C[C@H]2C(=O)O[C@@H](C)[C@H](NC(=O)[C@H](Cc3cc(F)cc(F)c3)NC(=O)Nc3ccc(Cl)cc3F)C(=O)N3CCC[C@H]3C(=O)N3CCCC[C@H]3C(=O)N[C@@H](C)C(=O)N2C1 [Compound 307, (S)-2-(3-(4-chloro-2-fluorophenyl)ureido)-3-(3,5-difluorophenyl)-N-((2R,6S,8aS,14aS,20S,21S,23aS)-2,6,21-trimethyl-5,8,14,19,23-pentaoxooctadecahydro-1H,5H,14H,19H-pyrido[2,1-i]dipyrrolo[2,1-c:2′,1′-l][1]oxa[4,7,10,13]tetraazacyclo-hexadecin-20-yl)propanamide] ({NH(4-Cl-2-F-phenyl)-CO}-[Phe(3,5-F2)][aThr]P[Pip]A[Pro(4R-Me)]; ester 2-C)		440 ± 30
C[C@@H]1C[C@H]2C(=O)OC[C@H](NC(=O)[C@H](Cc3cc(F)cc(F)c3)NC(=O)Nc3ccc(Cl)cc3F)C(=O)N3CCC[C@H]3C(=O)N3CCN(C)C[C@H]3C(=O)N[C@@H](C)C(=O)N2C1 [Compound 330, (S)-2-(3-(4-chloro-2-fluorophenyl)ureido)-3-(3,5-difluorophenyl)-N-((6aS,12S,15aS,17R,21S,23aS)-2,17,21-trimethyl-6,11,15,20,23-pentaoxooctadecahydro-2H,6H,11H,15H-pyrazino[2,1-i]dipyrrolo[2,1-c:2′,1′-l][1]oxa[4,7,10,13]tetraazacyclohexadecin-12-yl)propanamide] ({NH(4-Cl-2-F-phenyl)-CO}-[Phe(3,5-F2)]SP[Piperazine(2S-CO,4-Me)]A[Pro(4R-Me)]; ester 2-C)		290 ± 20
C[C@@H]1C[C@H]2C(=O)OC[C@H](NC(=O)[C@H](Cc3cc(F)cc(F)c3)NC(=O)Nc3ccc4c(c3)OCO4)C(=O)N3C[C@H](O)C[C@H]3C(=O)N3CCOC[C@H]3C(=O)N[C@@H](C)C(=O)N2C1 [Compound 318, (S)-2-(3-(benzo[d][1,3]dioxol-5-yl)ureido)-3-(3,5-difluorophenyl)-N-((6aS,8R,12S,15aS,17R,21S,23aS)-8-hydroxy-17,21-dimethyl-6,11,15,20,23-pentaoxooctadecahydro-6H,11H,15H-[1,4]oxazino[3,4-i]dipyrrolo[2,1-c:2′,1′-l][1]oxa[4,7,10,13]tetraazacyclo-hexadecin-12-yl)propanamide] ({NH(1,3-benzodioxol-5-yl)-CO}-[Phe(3,5-F2)]S[Hyp][Morpholine(3S-CO)]A[Pro(4R-Me)]; ester 2-C)		460 ± 60
C[C@@H]1C[C@H]2C(=O)O[C@@H](C)[C@H](NC(=O)[C@H](Cc3cc(F)cc(F)c3)NC(=O)Nc3ccc(F)c(C#N)c3)C(=O)N3C[C@H](O)C[C@H]3C(=O)N3CCOC[C@H]3C(=O)N[C@@H](C)C(=O)N2C1 [Compound 326, (S)-2-(3-(3-cyano-4-fluorophenyl)ureido)-3-(3,5-difluorophenyl)-N-((6aS,8R,12S,13S,15aS,17R,21S,23aS)-8-hydroxy-13,17,21-trimethyl-6,11,15,20,23-pentaoxooctadecahydro-6H,11H,15H-[1,4]oxazino[3,4-i]dipyrrolo[2,1-c:2′,1′-l][1]oxa[4,7,10,13]tetraazacyclo-hexadecin-12-yl)propanamide] ({X1-CO}-[Phe(3,5-F2)][aThr][Hyp][Morpholine(3S-CO)]A[Pro(4R-Me)]; ester 2-C)		460 ± 40
C[C@@H]1C[C@H]2C(=O)O[C@@H](C)[C@H](NC(=O)[C@H](Cc3cc(F)cc(F)c3)NC(=O)Nc3ccc4c(c3)CCO4)C(=O)N3CCC[C@H]3C(=O)N3CCCC[C@H]3C(=O)N[C@@H](C)C(=O)N2C1 [Compound 305, (S)-3-(3,5-difluorophenyl)-2-(3-(2,3-dihydrobenzofuran-5-yl)ureido)-N-((2R,6S,8aS,14aS,20S,21S,23aS)-2,6,21-trimethyl-5,8,14,19,23-pentaoxooctadecahydro-1H,5H,14H,19H-pyrido[2,1-i]dipyrrolo[2,1-c:2′,1′-l][1]oxa[4,7,10,13]tetraazacyclo-hexadecin-20-yl)propanamide] ({X8-CO}-[Phe(3,5-F2)][aThr]P[Pip]A[Pro(4R-Me)]; ester 2-C)	480 ± 20	
Cc1ccc(NC(=O)N[C@@H](Cc2ccccc2)C(=O)N[C@H]2COC(=O)[C@@H]3C[C@@H](C)CN3C(=O)[C@H](C)NC(=O)[C@@H]3CCCCN3C(=O)[C@@H]3CCCN3C2=O)cc1C [Compound 206, (S)—N-((2R,6S,8aS,14aS,20S,23aS)-2,6-dimethyl-5,8,14,19,23-pentaoxooctadecahydro-1H,5H,14H,19H-pyrido[2,1-i]dipyrrolo[2,1-c:2′,1′-l][1]oxa[4,7,10,13]tetraazacyclohexadecin-20-yl)-2-(3-(3,4-dimethylphenyl)ureido)-3-phenylpropanamide]	1600 ± 300	
Cc1ccc(NC(=O)N[C@@H](Cc2cc(F)cc(F)c2)C(=O)N[C@@H]2C(=O)N3C[C@H](O)C[C@H]3C(=O)N3CCCC[C@H]3C(=O)N[C@@H](C)C(=O)N3C[C@H](C)C[C@H]3C(=O)O[C@H]2C)cc1C [Compound 212, (S)-3-(3,5-difluorophenyl)-2-(3-(3,4-dimethylphenyl)ureido)-N-((2R,6S,8aS,14aS,16R,20S,21S,23aS)-16-hydroxy-2,6,21-trimethyl-5,8,14,19,23-pentaoxooctadecahydro-1H,5H,14H,19H-pyrido[2,1-i]dipyrrolo[2,1-c:2′,1′-l][1]oxa[4,7,10,13]tetraazacyclohexadecin-20-yl)propanamide] ({NH(3,4-Me2-phenyl)-CO}-[Phe(3,5-F2)][aThr][Hyp][Pip]A[Pro(4R-Me)]; ester 2-C)	500 ± 30	
C[C@@H]1C[C@H]2C(=O)O[C@@H](C)[C@H](NC(=O)[C@H](Cc3cc(F)cc(F)c3)NC(=O)Nc3ccc4c(c3)CCN4C)C(=O)N3CCC[C@H]3C(=O)N(C)C([C@@H](C)O)C(=O)N[C@@H](C)C(=O)N2C1 (stereo partly drawn) [Compound 311, (S)-3-(3,5-difluorophenyl)-N-((2R,6S,9R,11aS,17S,18S,20aS)-9-((R)-1-hydroxyethyl)-2,6,10,18-tetramethyl-5,8,11,16,20-pentaoxohexadecahydro-1H,5H,16H-dipyrrolo[2,1-c:2′,1′-l][1]oxa[4,7,10,13]tetraazacyclohexadecin-17-yl)-2-(3-(1-methylindolin-5-yl)ureido)propanamide] ({NH(1-Me-indolin-5-yl)-CO}-[Phe(3,5-F2)][aThr]P[ξNMeThr]A[Pro(4R-Me)]; ester 2-C)	540 ± 20	
